Measured values reported in patent US10716797B2, “Steroid alkaloids and compositions and kits thereof” (priority 2013, dated 2020).

Legend:
Type in all cases: cell-based, Staphylococcus aureus
MRSA USA100 = assay: MIC by microdilution, alone or in combination, MRSA USA100; details: agent used alone
Experimental: (§1) Method. The minimal inhibitory concentrations (MICs), (i.e. lowest concentration of an antimicrobial that will inhibit the visible growth of a microorganism after incubation), of test compounds were determined against the normal or SCV strains of bacterial species from the Firmicutes phylum. Briefly, MICs were determined using the microdilution method in 96-well plates (Clinical and Laboratory Standards Institute (CLSI), 2011). Bacteria were inoculated at ˜10^5-10^6 CFU/mL and incubated at 35° C. for 20 h (normal strains) or 48 h (SCVs) in brain heart infusion (BHI) broth in order to allow SCVs to reach maximal growth as previously described (Mitchell et al., 2012). Then OD595 nm was read on a microplate reader. […] In this example the range of compound concentrations tested was 0.03 to 64 μg/ml using doubling increments. Strain Staphylococcus aureus NewbouldΔhemB (hemB) was also used in the experiments and is a laboratory-derived stable SCV created by the insertion of the macrolide resistance gene ermA in the hemB gene of this strain to create the SCV phenotype (defective electron transport chain and respiratory deficiency) through inactivation of hemin biosynthesis (Brouillette et al., 2004).
(§2) In the present Example the range of compound concentrations tested, using doubling increments, was 0.03 to 64 μg/ml for Compound 14 and up to 1024 μg/ml for gentamicin (GEN), kanamycin (KAN) and cefalexin (CEF) when these compounds were used alone. Compound 14 (Cpd 14) was used at a fixed concentration of 4 μg/ml when added to other antibiotics. The combination of CEF and KAN was used in a 3:2 ratio and doubling increments were used to test the antibacterial activity against MRSA in the absence or presence of Compound 14.

MRSA COL = assay: MIC by microdilution, alone or in combination, MRSA COL; details: agent used alone
Experimental: as §1, §2

S. aureus hemB (SaR2) = assay: MIC against tomatidine-resistant SCV mutant SaR2
Experimental: At each passage, using a microdilution method in 96-well microplates, S. aureus hemB was inoculated at ˜10^5-10^6 CFU/ml and incubated at 35° C. for 48 h. The range of tomatidine concentrations tested was 0.03 to 64 μg/ml using doubling increments. The concentration of gentamicin was fixed at 4 μg/mL when it was used in combination with tomatidine. At each passage, the minimal inhibitory concentrations (MICs) (i.e. lowest concentration of an antimicrobial that inhibits the visible growth of bacteria), of tomatidine was determined. The bacteria used as inoculum for the next passage were from the well preceeding the well showing the MIC (i.e. the well containing half the MIC). At each passage, the population of bacteria serving as the inoculum for the next passage was spread on BHI agar plates and three isolated colonies were collected and frozen until used for whole-genome sequencing.

**Q.** For “3-(N-aminoethyl)-aminotomatidine hydrochloride [Compound 14]”, which MIC (MRSA USA100) is on record?
**A.** 16 µg/mL

**Q.** What about the MIC (MRSA COL) of the same substance?
**A.** 16 µg/mL

**Q.** And the “Fold increase in resistance (MIC for mutant / MIC for NewbouldΔhemB)” value (S. aureus hemB (SaR2); mutant SaR2)?
**A.** 8 fold

**Q.** What about the MIC (S. aureus hemB (SaR2); tomatidine-resistant mutant SaR2) of the same substance?
**A.** 4 µg/mL
